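Growth conditions: 96-well plates. Treatment: test compound, 48 hours, 5 concentrations. Analysis: linear interpolation between bracketing concentrations; unreached endpoints set to highest concentration. TGI: concentration producing complete growth inhibition.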
How the values were obtained:
Assay in all cases: NCI-60 cell line screen, 48 h
[1] = tested on: HCT-15 colon
[2] = tested on: HL-60(TB) leukemia
[3] = tested on: SF-539 CNS
[4] = tested on: SNB-75 CNS
[5] = tested on: 786-0 renal
[6] = tested on: HS 578T breast
[7] = tested on: U251 CNS
[8] = tested on: UO-31 renal
[9] = tested on: UACC-62 melanoma
[10] = tested on: T-47D breast
[11] = tested on: SR leukemia
[12] = tested on: CCRF-CEM leukemia
[13] = tested on: RPMI-8226 leukemia
[14] = tested on: OVCAR-3 ovarian
[15] = tested on: HOP-92 NSCLC
[16] = tested on: SK-MEL-28 melanoma
[17] = tested on: EKVX NSCLC
[18] = tested on: HOP-62 NSCLC
[19] = tested on: PC-3 prostate
[20] = tested on: SNB-19 CNS
[21] = tested on: CAKI-1 renal
[22] = tested on: BT-549 breast
[23] = tested on: UACC-257 melanoma
[24] = tested on: KM12 colon
[25] = tested on: HT29 colon
[26] = tested on: NCI-H460 lung
[27] = tested on: SW-620 colon
[28] = tested on: LOX IMVI melanoma
[29] = tested on: NCI-H522 lung
[30] = tested on: MOLT-4 leukemia
[31] = tested on: A498 renal
[32] = tested on: SK-MEL-2 melanoma
[33] = tested on: NCI/ADR-RES ovarian
[34] = tested on: TK-10 renal
[35] = tested on: NCI-H23 lung
[36] = tested on: DU-145 prostate
[37] = tested on: OVCAR-8 ovarian
[38] = tested on: MCF7 breast
[39] = tested on: IGROV1 ovarian
[40] = tested on: RXF 393 renal
[41] = tested on: OVCAR-4 ovarian
[42] = tested on: HCT-116 colon

O=C(c1ccccc1)c1c(C(F)(F)F)n([O-])c2ccccc2[n+]1=O
TGI [1]: > 100 µM
TGI [2]: 1.42 µM
TGI [3]: 5.77 µM
TGI [4]: 2.74 µM
TGI [5]: > 100 µM
TGI [6]: > 100 µM
TGI [7]: > 100 µM
TGI [8]: 2.27 µM
TGI [9]: 3.52 µM
TGI [10]: 2.85 µM
TGI [11]: 0.413 µM
TGI [12]: > 100 µM
TGI [13]: 3.34 µM
TGI [14]: 1.41 µM
TGI [15]: 1.2 µM
TGI [16]: 4.33 µM
TGI [17]: 6.04 µM
TGI [18]: > 100 µM
TGI [19]: 2.27 µM
TGI [20]: 3.23 µM
TGI [21]: 1.94 µM
TGI [22]: 1.93 µM
TGI [23]: 3.5 µM
TGI [24]: 3.89 µM
TGI [25]: 2.23 µM
TGI [26]: 5.72 µM
TGI [27]: > 100 µM
TGI [28]: > 100 µM
TGI [29]: 2 µM
TGI [30]: 0.516 µM
TGI [31]: 4.72 µM
TGI [32]: 3.43 µM
TGI [33]: > 100 µM
TGI [34]: 3.6 µM
TGI [35]: 3.71 µM
TGI [36]: 4.54 µM
TGI [37]: 3.3 µM
TGI [38]: 5.24 µM
TGI [39]: 0.489 µM
TGI [40]: 3.83 µM
TGI [41]: 1.11 µM
TGI [42]: > 100 µM
